From ChEMBL document CHEMBL3045941, “-Methyl as a bioisostere for the oxygen link between the aromatic rings of aryloxyphenoxypropionate herbicides” (Bioorg Med Chem Lett, 1997)
The source made the active and inactive calls. The rule behind the calls is not given here.

Key:
Sorghum halepense [1] = assay: Post-emergent herbicidal activity against Sorghum halepense (Johnson grass) at <2 g/ha measured after 13 days under green house conditions; assay type: functional, organism-based
Setaria viridis [2] = assay: Post-emergent herbicidal activity against Setaria viridis (green foxtail) at 500 g/ha measured after 13 days under green house conditions; assay type: functional
Zea mays [3] = assay: Phytotoxicity against Zea mays (maize) plant at two to four-leaf growth stage at 500 g/ha measured after 13 days under green house conditions; assay type: organism-based; settings: in vivo, 312 h
Sorghum halepense [4] = assay: Post-emergent herbicidal activity against Sorghum halepense (Johnson grass) at 500 g/ha measured after 13 days under green house conditions; assay type: functional
Triticum aestivum [5] = assay: Phytotoxicity against Triticum aestivum (wheat) plant at two to four-leaf growth stage at 500 g/ha measured after 13 days under green house conditions; assay type: organism-based; settings: in vivo, 312 h
Oryza sativa [6] = assay: Phytotoxicity against Oryza sativa (rice) plant at two to four-leaf growth stage at <2 g/ha measured after 13 days under green house conditions; assay type: organism-based; settings: in vivo, 312 h
Echinochloa crus-galli [7] = assay: Post-emergent herbicidal activity against Echinochloa crus-galli (barnyard grass) at 500 g/ha measured after 13 days under green house conditions; assay type: functional
Zea mays [8] = assay: Phytotoxicity against Zea mays (maize) plant at two to four-leaf growth stage at <2 g/ha measured after 13 days under green house conditions; assay type: organism-based; settings: in vivo, 312 h
Setaria viridis [9] = assay: Post-emergent herbicidal activity against Setaria viridis (green foxtail) at <2 g/ha measured after 13 days under green house conditions; assay type: functional, organism-based
Avena fatua [10] = assay: Post-emergent herbicidal activity against Avena fatua at 500 g/ha measured after 13 days under green house conditions; assay type: functional
Avena fatua [11] = assay: Post-emergent herbicidal activity against Avena fatua at <2 g/ha measured after 13 days under green house conditions; assay type: functional, organism-based
Triticum aestivum [12] = assay: Phytotoxicity against Triticum aestivum (wheat) at two to four-leaf growth stage at <2 g/ha measured after 13 days under green house conditions; assay type: organism-based; settings: in vivo, 312 h
Echinochloa crus-galli [13] = assay: Post-emergent herbicidal activity against Echinochloa crus-galli (barnyard grass) at <2 g/ha measured after 13 days under green house conditions; assay type: functional, organism-based
Oryza sativa [14] = assay: Phytotoxicity against Oryza sativa (rice) plant at two to four-leaf growth stage at 500 g/ha measured after 13 days under green house conditions; assay type: organism-based; settings: in vivo, 312 h
Zea mays [15] = assay: Phytotoxicity against Zea mays (maize) plant at two to four-leaf growth stage at 50 g/ha measured after 13 days under green house conditions; assay type: organism-based; settings: in vivo, 312 h
Setaria viridis [16] = assay: Post-emergent herbicidal activity against Setaria viridis (green foxtail) at 50 g/ha measured after 13 days under green house conditions; assay type: functional
Oryza sativa [17] = assay: Phytotoxicity against Oryza sativa (rice) plant at two to four-leaf growth stage at 50 g/ha measured after 13 days under green house conditions; assay type: organism-based; settings: in vivo, 312 h
Sorghum halepense [18] = assay: Post-emergent herbicidal activity against Sorghum halepense (Johnson grass) at 50 g/ha measured after 13 days under green house conditions; assay type: functional
Avena fatua [19] = assay: Post-emergent herbicidal activity against Avena fatua at 50 g/ha measured after 13 days under green house conditions; assay type: functional
Echinochloa crus-galli [20] = assay: Post-emergent herbicidal activity against Echinochloa crus-galli (barnyard grass) at 50 g/ha measured after 13 days under green house conditions; assay type: functional
Triticum aestivum [21] = assay: Phytotoxicity against Triticum aestivum (wheat) at two to four-leaf growth stage at 50 g/ha measured after 13 days under green house conditions; assay type: organism-based; settings: in vivo, 312 h
Triticum aestivum [22] = assay: Phytotoxicity against Triticum aestivum (wheat) at two to four-leaf growth stage at 5 g/ha measured after 13 days under green house conditions; assay type: organism-based; settings: in vivo, 312 h
Avena fatua [23] = assay: Post-emergent herbicidal activity against Avena fatua at 5 g/ha measured after 13 days under green house conditions; assay type: functional
Oryza sativa [24] = assay: Phytotoxicity against Oryza sativa (rice) plant at two to four-leaf growth stage at 5 g/ha measured after 13 days under green house conditions; assay type: organism-based; settings: in vivo, 312 h
Setaria viridis [25] = assay: Post-emergent herbicidal activity against Setaria viridis (green foxtail) at 5 g/ha measured after 13 days under green house conditions; assay type: functional
Echinochloa crus-galli [26] = assay: Post-emergent herbicidal activity against Echinochloa crus-galli (barnyard grass) at 5 g/ha measured after 13 days under green house conditions; assay type: functional
Sorghum halepense [27] = assay: Post-emergent herbicidal activity against Sorghum halepense (Johnson grass) at 5 g/ha measured after 13 days under green house conditions; assay type: functional
Zea mays [28] = assay: Phytotoxicity against Zea mays (maize) plant at two to four-leaf growth stage at 5 g/ha measured after 13 days under green house conditions; assay type: organism-based; settings: in vivo, 312 h

SMILES	Activity (Sorghum halepense [1])	Activity (Setaria viridis [2]) [%]	Activity (Zea mays [3]) [%]	Activity (Sorghum halepense [4]) [%]	Activity (Triticum aestivum [5]) [%]	Activity (Oryza sativa [6])	Activity (Echinochloa crus-galli [7]) [%]	Activity (Zea mays [8])	Activity (Setaria viridis [9])	Activity (Avena fatua [10]) [%]	Activity (Avena fatua [11])	Activity (Triticum aestivum [12])	Activity (Echinochloa crus-galli [13])	Activity (Oryza sativa [14]) [%]	other results
COC(=O)C(C)Oc1ccc(Oc2ccc3cc(Cl)ccc3n2)cc1 (racemic)	inactive	100	100	100	85	Non-toxic	100	Non-toxic	inactive	85	inactive	Non-toxic	inactive	85	–
CCOC(=O)C(C)Oc1ccc(N(C)c2cnc3cc(Cl)ccc3n2)cc1 (racemic)	inactive	85	50	85	85	Non-toxic	85	Non-toxic	inactive	0	inactive	Non-toxic	inactive	0	–
COC(=O)C(C)Oc1ccc(Oc2ccc(Cl)cc2Cl)cc1 (racemic) [DICLOFOP-METHYL]	inactive	100	85	70	0	Non-toxic	100	Non-toxic	inactive	70	inactive	Non-toxic	inactive	0	–
COC(=O)C(C)Oc1ccc(Oc2nnc3cc(Cl)ccc3n2)cc1 (racemic)	inactive	50	0	30	0	Non-toxic	50	Non-toxic	inactive	0	inactive	Non-toxic	inactive	0	–
CCOC(=O)C(C)Oc1ccc(Oc2nc3ccc(Cl)cc3o2)cc1 (racemic) [FENOXAPROP-ETHYL]	inactive	–	–	–	–	Non-toxic	–	Non-toxic	inactive	–	inactive	Non-toxic	inactive	–	Activity (Zea mays [15]): 85%; Activity (Setaria viridis [16]): 100%; Activity (Oryza sativa [17]): 70%; Activity (Sorghum halepense [18]): 100%; Activity (Avena fatua [19]): 85%; Activity (Echinochloa crus-galli [20]): 100%; Activity (Triticum aestivum [21]): 0%
CCOC(=O)C(C)Oc1ccc(Oc2cc3ccc(Cl)cc3cn2)cc1 (racemic)	inactive	85	70	100	85	Non-toxic	100	Non-toxic	inactive	85	inactive	Non-toxic	inactive	70	–
CCOC(=O)C(C)Oc1ccc(N(C)c2cc3ccc(Cl)cc3cn2)cc1 (racemic)	inactive	85	100	85	85	Non-toxic	100	Non-toxic	inactive	70	inactive	Non-toxic	inactive	0	–
COC(=O)C(C)Oc1ccc(N(C)c2ccc(C(F)(F)F)cn2)cc1 (racemic)	inactive	0	30	0	30	Non-toxic	50	Non-toxic	inactive	0	inactive	Non-toxic	inactive	0	–
CCOC(=O)C(C)Oc1ccc(Oc2cnc3cc(Cl)ccc3n2)cc1 (racemic) [QUIZALOFOP ETHYL ESTER]	inactive	–	–	–	–	Non-toxic	–	Non-toxic	inactive	–	inactive	Non-toxic	inactive	–	Activity (Triticum aestivum [22]): 85%; Activity (Zea mays [15]): 100%; Activity (Setaria viridis [16]): 100%; Activity (Avena fatua [23]): 30%; Activity (Oryza sativa [17]): 70%; Activity (Sorghum halepense [18]): 100%; Activity (Oryza sativa [24]): 50%; Activity (Setaria viridis [25]): 70%; Activity (Echinochloa crus-galli [26]): 70%; Activity (Sorghum halepense [27]): 85%; Activity (Avena fatua [19]): 85%; Activity (Echinochloa crus-galli [20]): 100%; Activity (Triticum aestivum [21]): 85%; Activity (Zea mays [28]): 85%
COC(=O)C(C)Oc1ccc(Oc2ncc3cc(Cl)ccc3n2)cc1 (racemic)	inactive	65	15	85	0	Non-toxic	85	Non-toxic	inactive	0	inactive	Non-toxic	inactive	0	–
COC(=O)C(C)Oc1ccc(N(C)c2ccc3cc(Cl)ccc3n2)cc1 (racemic)	inactive	85	100	100	85	Non-toxic	100	Non-toxic	inactive	70	inactive	Non-toxic	inactive	30	–
COC(=O)C(C)Oc1ccc(N(C)c2ccc(Cl)cc2Cl)cc1 (racemic)	inactive	85	30	85	70	Non-toxic	85	Non-toxic	inactive	0	inactive	Non-toxic	inactive	0	–
CCCCOC(=O)C(C)Oc1ccc(Oc2ccc(C(F)(F)F)cn2)cc1 (racemic)	inactive	–	–	–	–	Non-toxic	–	Non-toxic	inactive	–	inactive	Non-toxic	inactive	–	Activity (Zea mays [15]): 85%; Activity (Setaria viridis [16]): 85%; Activity (Oryza sativa [17]): 50%; Activity (Sorghum halepense [18]): 85%; Activity (Avena fatua [19]): 85%; Activity (Echinochloa crus-galli [20]): 85%; Activity (Triticum aestivum [21]): 70%
COC(=O)C(C)Oc1ccc(N(C)c2nnc3cc(Cl)ccc3n2)cc1 (racemic)	inactive	–	–	–	–	Non-toxic	–	Non-toxic	inactive	–	inactive	Non-toxic	inactive	–	Activity (Triticum aestivum [22]): 70%; Activity (Zea mays [15]): 85%; Activity (Setaria viridis [16]): 100%; Activity (Avena fatua [23]): 50%; Activity (Oryza sativa [17]): 85%; Activity (Sorghum halepense [18]): 100%; Activity (Oryza sativa [24]): 0%; Activity (Setaria viridis [25]): 100%; Activity (Echinochloa crus-galli [26]): 0%; Activity (Sorghum halepense [27]): 50%; Activity (Avena fatua [19]): 85%; Activity (Echinochloa crus-galli [20]): 100%; Activity (Triticum aestivum [21]): 85%; Activity (Zea mays [28]): 70%
